Key:
[1] = target: T1, His-p51/FLAG-p66 RT heterodimer (Human immunodeficiency virus type 1 group M subtype B, UniProt P12497); assay: Microplate eTag assay to monitor p66-p51 RT dimerization, in the presence of drugs; assay type: binding; details: drug concentration varied from 0 μM to 100 μM; released eTag quantitated; read-out: IC50 (heterodimerization of p66 and p51)
T1 construct: The gene for the 66 kDa subunit of HIV-1 RT; The gene for the 51 kDa subunit of HIV-1 RT; made in house; host or cells: E. coli
Description: The assay was performed by first capturing His-tagged p51 on Ni^2+-NTA microplates, and then adding FLAG-tagged p66 to form the heterodimer. To the heterodimer complex was added a solution of eTag covalently linked to FLAG antibodies resulting His-p51/FLAG-p66 RT heterodimer complexed to an eTag immobilized on the microplates. After washing to remove unbound material, the eTag was cleaved by the addition of methylene blue, and the amount of released eTags was measured and quantitated by electrophoretic separation.

[2] = target: T2, heterodimerization of p66 and p51 (Human immunodeficiency virus type 1 group M subtype B, UniProt P12497); details: literature comparison values; cited from earlier work
T2 construct: active form of HIV-1 RT is a heterodimer containing two polypeptides, p66 and p51

In the case of “[2′,5′-bis-o-(butyldimethylsilyl)-3′-spiro 5′-(4′-amino-1′,2′-oxothiole-2′,2′-dioxide] [TSAO]”, the IC50 [1] is listed as 6.4 µM and the IC50 [2] is listed as 6.7 µM.
In the case of calmodulin [CAM], the IC50 [1] is given as 3.7 µM and the IC50 [2] is given as 1.9 µM.
